From patent US8193238B2, “Inhibition of microtubule protrusion in cancer cells” (University of Maryland, Baltimore, priority 2006, dated 2012)
Entries after “also recorded” stand apart in the source; their conditions may differ.

Columns and labels:
Assay type in all cases: cell-based, mouse
EpH4-Bcl2 cells [1] = test: Cell-substratum attachment assay
Experimental: (§1) In FIG. 6A, EpH4-Bcl2 cells were suspended over agarose and treated with inhibitors as above. Following treatment, cells were plated into 0.3% methylcellulose media over agarose and the rate of cell-cell attachment was followed by Hoescht DNA staining. […] Similar results were found in three independent experiments. In FIG. 6B, EpH4-Bcl2 cells suspended over agarose for one hour in DMEM or DMEM containing LA (5 μM), Colchicine (1 μM), or the combination. Reattachment of these cells to either uncoated tissue culture plates or those pre-coated with laminin was followed by XTT cell viability assay. Values represent mean+S.D. of raw XTT values of three separate experiments.
Equivalent numbers of B19 cells were suspended over 6-well plates coated in 2% agarose in serum-free media containing 5 μM Latrunculin-A (LA; BioMol, Plymouth Meeting, Pa.), 100 μM colchicine (Col; Sigma, St. Louis, Mo.), 5 μg/ml nocodazole (Noc), or 1 μg/ml vinblastine (VinB; Sigma) for a duration of 1 hr at 37° C. Cells were collected by centrifugation (1000 rpm×5 min) and drug containing media was aspirated. Cells were resuspended in EpH4 serum-containing growth media and aliquoted out into 24 wells (8 timepoints×3 replicates) of a 96-well clear bottom black plate. After plating, cells were allowed to attach for duration of 15 min, 45 min, 1.5 hr, 2 hr, 3 hr, 4 hr, 5 hr, and 24 hr at which point the media was aspirated from the replicate wells, washed twice in PBS, and fresh growth media was replaced at each timepoint. After 24 hr, all wells were aspirated and cells were incubated in growth media containing Hoescht 33342 (1:5000) for 30 min at 37° C. to label all attached cells. Fluorescence was measured using a Biotek Synergy HT Multi-Detection Microplate Reader (Winooski, Vt.) at excitation wavelength 360 nm and an emission filter of 460 nm followed by subsequent analysis using the KC4 Data Analysis software. The percentage of cell attachment for each treatment exposure was calculated as the RFU at each timepoint divided by the RFU at 24 h (maximum attachment). The standard deviations of triplicates at each timepoint are shown.
(§2) To determine if these microtubule protrusions influence the ability of cells to form attachments, the cells were treated with inhibitors of actin or tubulin polymerization and assessed both cell-cell and cell-substratum attachment (FIG. 6). […] Induction of such nonspecific attachment activity in detached mammary epithelial cells could promote tumor cell dissemination, particularly when apoptotic resistance allows this response to continue for extended periods.

EpH4-Bcl2 cells [2] = test: Cell-cell attachment assay; conditions: EpH4-Bcl2 in 0.3% methylcellulose over agarose, 5 hours; listed as LA
Experimental: as §1
B19 cells were seeded onto 10 cm dishes until 80% confluency. The media was aspirated and cells were incubated in fresh growth media containing Hoescht 33342 (1:5000) for 30 min at 37° C. to label all attached cells. The cells were washed twice in PBS, detached by trypsinization, and an equivalent number of cells were resuspended in serum-free media containing 0.3% methylcellulose with either 5 μM Latrunculin A, 100 μM Colchicine, 1 μg/ml vinblastine, or 5 μg/ml nocodazole and plated over 2% agarose-coated 24-well plates. The progression of cell-cell adhesion over time was visualized by the EpiChemi3 Imaging System (UVP, Inc.; Upland, Calif.) using an excitation wavelength of 365 nm and a blue band pass filter. Images were obtained with an attached Hamamatsu CCD camera (Hamamatsu Photonics, Hamamatsu City, Japan) and analyzed with UVP Labworks Image Acquisition and Analysis Software v. 4.6.
as §2

EpH4 cells = test: Protrusions in suspended cells treated with cytoskeletal inhibitors (EpH4)
Experimental: In FIG. 2A, after 15 minutes of suspension, protrusions in EpH4 and MCF10A cells are quite small (Control, white arrows). […] In FIG. 2B, populations of live, suspended cells were scored blindly for two or more protrusions longer than the cell radius. Each bar represents the mean+S.D. for three experiments in which at least 100 single cells were counted.
EpH4 cells were suspended in either DMEM (Control) or media containing 5 μM Latrunculin-A (LA), 1 μM Colchicine or the combination of both drugs for 30 minutes. Cells were then spun onto glass coverslips and fluorescently stained for α-tubulin (green) and polymerized actin (red). Protrusions that are difficult to see by phase contrast are easily discernible with immunostaining for α-tubulin (white arrows). Protrusions contain little polymerized actin, except at points of concentration, which are often at the end (arrowhead).
EpH4 and B19 cells were suspended over 2% agarose coated plates to prevent attachment in either serum-free DMEM or media containing. Latrunculin-A (5 μM) to enhance protrusions. For co-staining of α-tubulin and actin, suspended cells were then centrifuged onto poly-L-lysine coated coverslips (280 g×5 min), fixed in 3.7% formaldehyde in PBS for 10 min, and permeablized with 0.1% Triton X-100 in PBS. Adhered cells were then stained for 1 hr at room temperature using FITC-conjugated anti-α-tubulin (1:200; Sigma), Alexa-594 phalloidin (1:100; Molecular Probes), and Hoescht 33342 (1:5000; Sigma).
In order to initially characterize the cytoskeletal mechanism underlying these protrusions, suspended cells were treated with inhibitors of actin and tubulin polymerization (FIG. 2). After 15 minutes of suspension, the protrusions in untreated EpH4 or MCF10A cells remain fairly short (FIG. 2, white arrows). These early protrusions can often be difficult to detect with phase-contrast microscopy, due to interfering light refraction from the plasma membrane. […] Protrusions were more easily visible with immunofluorescence than phase contrast microscopy (FIG. 3, white arrows). Although actin filament staining was generally low along the length of the protrusion, dense points of actin were often found at the end of protrusions (FIG. 3, arrowheads).

With `C/C1=C/C(=O)O[C@@H]2C[C@@H](CC[C@H](C)/C=C\C=C\CC1)O[C@@](O)([C@@H]1CSC(=O)N1)C2` [Latrunculin-A] the “attachment of cells to tissue culture surfaces” value (EpH4-Bcl2 cells [1]; EpH4-Bcl2 (B19), 1 hr in suspension with inhibitor, then replated) was “did not significantly affect attachment”, the “cell-surface attachment to uncoated or laminin-coated plates (XTT)” value (EpH4-Bcl2 cells [1]; EpH4-Bcl2 suspended one hour, LA 5 μM, Colchicine 1 μM) was “does not affect cell-surface attachment” and the “cell-cell attachment (clustering)” value (EpH4-Bcl2 cells [2]) was “did speed the rate at which cells bound to each other; also recorded: cluster similarly or even more tightly compared to control cells”. The protrusions (EpH4 cells; EpH4, 15 minutes of suspension, Latrunculin-A 5 μM, Colchicine 1 μM, listed as latrunculin-A) was “significantly enhanced both the number and length of protrusions” and the “microtubule protrusions by immunofluorescence (α-tubulin)” value (EpH4 cells; EpH4 suspended 30 minutes, LA 5 μM, listed as LA) was “increase the number and length of microtubule protrusions; also recorded: strongly enhances the formation of microtubule protrusions”.
